Each structure is given as a SMILES string. In brackets after ≈: the same amount, converted by molar mass. Read-outs that look alike come from different tables or passages of the source.

The test system of data set [1] is Mycobacterium tuberculosis (strain H37RV). In words: Time kill assay (kill kinetics), broth dilution method. In kind it is cell-based.
For data set [2] the test system is unchanged. In words: MIC90 determination for testing compounds against M. tuberculosis. In kind it is cell-based.

`O=C(Nc1nc2cc(Cl)ccc2o1)NC12CC3CC(CC(C3)C1)C2` yielded a melting point of more than 250 °C.
`O=C(Nc1nc2c(F)cc(F)cc2s1)NC12CC3CC(CC(C3)C1)C2` [Compound 1] returned a melting point of more than 260 °C. In addition, the “log CFU/ml” value in data set [1] (0.5 μg/ml, day 0) was 6.35 log CFU/ml. The “log CFU/ml” value in data set [1] (0.5 μg/ml, day 1) came to 5.57 log CFU/ml. Further, in data set [1] (0.5 μg/ml, day 4), the “log CFU/ml” value is 2.00 log CFU/ml. Also, in data set [1] (0.5 μg/ml, day 7), the “log CFU/ml” value is given as 2.00 log CFU/ml. Moreover, the “log CFU/ml” value in data set [1] (0.5 μg/ml, day 14) stood at 2.00 log CFU/ml. Moreover, the “log CFU/ml” value in data set [1] (0.5 μg/ml, day 21) is 2.00 log CFU/ml. In addition, the “log CFU/ml” value in data set [1] (5 μg/ml, day 0) is recorded as 6.35 log CFU/ml. For the same compound, the “log CFU/ml” value in data set [1] (5 μg/ml, day 1) is reported as 6.15 log CFU/ml. For the same compound, the “log CFU/ml” value in data set [1] (5 μg/ml, day 4) was 3.08 log CFU/ml. The “log CFU/ml” value in data set [1] (5 μg/ml, day 7) stood at 2.00 log CFU/ml. For the same compound, the “log CFU/ml” value in data set [1] (5 μg/ml, day 14) was determined as 2.00 log CFU/ml. The “log CFU/ml” value in data set [1] (5 μg/ml, day 21) was found to be 2.00 log CFU/ml. For the same compound, the MIC90 in data set [2] (Mycobacterium tuberculosis, H37RV, LV12076, 10% human serum) stood at 1 µg/mL (≈ 2.75 µM). In addition, the MIC90 in data set [2] (Mycobacterium tuberculosis, H37RV, LV12086, 20% human serum) was 1 µg/mL (≈ 2.75 µM). In data set [2] (Mycobacterium tuberculosis, H37RV, LV12086, no human serum), this compound displayed an MIC90 of 0.25 µg/mL (≈ 0.688 µM). For the same compound, the MIC90 in data set [2] (Mycobacterium tuberculosis, H37RV, LV12076, no human serum) was 0.5 µg/mL (≈ 1.38 µM).
For `NNC(=O)c1ccncc1` [Isoniazid, reference compound], the “log CFU/ml” value in data set [1] (1 μg/ml, day 0) is 6.35 log CFU/ml; in data set [1] (1 μg/ml, day 1), 3.57 log CFU/ml; in data set [1] (1 μg/ml, day 4), 2.00 log CFU/ml; in data set [1] (1 μg/ml, day 7) it was 2.00 log CFU/ml; in data set [1] (1 μg/ml, day 14), 2.00 log CFU/ml; in data set [1] (1 μg/ml, day 21), 2.00 log CFU/ml. In addition, the MIC90 in data set [2] (LV12076, 10% human serum) is 0.03 µg/mL (≈ 0.219 µM); in data set [2] (LV12086, 20% human serum) it was 0.03 µg/mL (≈ 0.219 µM); in data set [2] (LV12086, no human serum) it was 0.03 µg/mL (≈ 0.219 µM); in data set [2] (Mycobacterium tuberculosis, H37RV, LV12076, no human serum, read-out: MIC90), 0.03 µg/mL (≈ 0.219 µM).

These data come from patent US9951032B2, “Antibacterial compounds” (Janssen Sciences Ireland UC, priority 2012, dated 2018).
